In US20240041042A1, “1-(PYRIDYL)-5-AZINYLPYRAZOLE DERIVATIVES, AND THEIR USE FOR CONTROL OF UNDESIRED PLANT GROWTH” (Bayer Aktiengesellschaft, priority 2020, published 2024):

Columns and labels:
Type in all cases: in vivo
[1] = test system: Amaranthus retroflexus (AMARE); assay: Post-emergence herbicidal action against AMARE
How it was run: (§1)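 Rates were 320 g/ha or below, applied as aqueous WP/EC spray with 0.5% additive (600 l/ha) onto one-leaf-stage plants. About 3 weeks later in the greenhouse, damage was scored visually against untreated plants on a 0–100% scale, where 100% means plants died.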

[2] = test system: Alopecurus myosuroides (ALOMY); assay: Post-emergence herbicidal action against ALOMY; conditions: visual rating about 3 weeks after treatment vs untreated controls (100% = plants have died, 0% = like control plants)
How it was run: as §1

[3] = test system: Matricaria inodora (MATIN); assay: Pre-emergence herbicidal action against MATIN
How it was run: (§2)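 Read-out is visual percent damage relative to untreated pots, with 100% meaning dead plants and 0% meaning no difference, assessed roughly three weeks after treatment. Compounds were applied pre-emergence to the covering soil at up to 320 g/ha.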

Avena fatua (AVEFA) [4] = assay: Post-emergence herbicidal action against AVEFA; conditions: visual rating about 3 weeks after treatment
How it was run: as §1

[5] = test system: Alopecurus myosuroides (ALOMY); assay: Pre-emergence herbicidal action against ALOMY; conditions: scored visually after about 3 weeks, 100% = plants have died
How it was run: as §2

[6] = test system: Abutilon theophrasti (ABUTH); assay: Post-emergence herbicidal action against ABUTH; conditions: 80 g/ha, visual rating about 3 weeks after treatment vs untreated controls (100% = plants have died, 0% = like control plants)
How it was run: as §1

[7] = test system: Polygonum convolvulus (POLCO); assay: Pre-emergence herbicidal action against POLCO
How it was run: as §2

Viola tricolor (VIOTR) [8] = assay: Pre-emergence herbicidal action against VIOTR
How it was run: as §2

[9] = test system: Verconica persica (VERPE); assay: Post-emergence herbicidal action against VERPE
How it was run: as §1

[10] = test system: Digitaria sanguinalis (DIGSA); assay: Post-emergence herbicidal action against DIGSA; conditions: 80 g/ha, visual rating about 3 weeks after treatment
How it was run: as §1

[11] = test system: Amaranthus retroflexus (AMARE); assay: Pre-emergence herbicidal action against AMARE; conditions: visual scoring after about 3 weeks vs untreated controls
How it was run: as §2

[12] = test system: Digitaria sanguinalis (DIGSA); assay: Pre-emergence herbicidal action against DIGSA
Text: (§3) Seeds of monocotyledonous and dicotyledonous weed plants and crop plants are placed in plastic or organic planting pots and covered with soil. The compounds of the invention, formulated in the form of wettable powders (WP) or as emulsion concentrates (EC), are then applied to the surface of the covering soil as aqueous suspension or emulsion with addition of 0.5% additive at a water application rate equivalent to 600 l/ha. After the treatment, the pots are placed in a greenhouse and kept under good growth conditions for the trial plants. After about 3 weeks, the effect of the preparations is scored visually in comparison with untreated controls as percentages. For example, 100% activity=the plants have died, 0% activity=like control plants.
Tables A1 to A13 below show the effects of selected compounds of the general formula (I) on various harmful plants and at an application rate corresponding to 320 g/ha or lower, which were obtained by the experimental procedure mentioned above. The appendices “a”, “b” and “c” give differentiation by dosage used with otherwise the same harmful plants tested.

Oryza sativa (ORYSA) = conditions: crop plant compatibility, 20 g/ha, effect vs untreated controls
How it was run: (§4)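 One-leaf-stage crops (2–3 wk post-sowing, sandy loam, greenhouse) sprayed on green parts; 0.5% additive, 600 l/ha water. Rated by eye ~3 wk later, % vs untreated; suffixes a/b/c mark different dosages.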

Zea mays (ZEAMX) [13] = conditions: for Post-emergence action against ZEAMX in % (crop plant compatibility): 20 g/ha, effect in comparison to untreated controls; for Post-emergence action against ZEAMX in %: crop plant compatibility, 80 g/ha, effect vs untreated controls
How it was run: as §4

[14] = test system: Echinochloa crus-galli (ECHCG); assay: Pre-emergence herbicidal action against ECHCG
How it was run: as §2

[15] = test system: Verconica persica (VERPE); assay: Pre-emergence herbicidal action against VERPE; conditions: dosage 320 g/ha
How it was run: as §2

Setaria viridis (SETVI) [16] = assay: Pre-emergence herbicidal action against SETVI
How it was run: as §2

[17] = test system: Pharbitis purpurea (PHBPU); assay: Post-emergence herbicidal action against PHBPU
How it was run: as §1

Avena fatua (AVEFA) [18] = assay: Pre-emergence herbicidal action against AVEFA; conditions: 320 g/ha, visual scoring after about 3 weeks vs untreated controls
How it was run: as §2

Lolium rigidum (LOLRI) [19] = assay: Pre-emergence herbicidal action against LOLRI
How it was run: as §2

Lolium rigidum (LOLRI) [20] = assay: Post-emergence herbicidal action against LOLRI; conditions: dosage 320 g/ha
How it was run: as §1

Viola tricolor (VIOTR) [21] = assay: Post-emergence herbicidal action against VIOTR
How it was run: as §1

[22] = test system: Polygonum convolvulus (POLCO); assay: Post-emergence herbicidal action against POLCO; conditions: dosage 320 g/ha
How it was run: as §1

Zea mays (ZEAMX) [23] = conditions: pre-emergence, 80 g/ha, crop plant compatibility, in comparison to untreated controls
Text: as §3
The observed effects on selected crop plants are reported here in comparison to the untreated controls (values in %). The appendices “a” “b” and “c” give differentiation by dosage used with otherwise the same crop plants tested.

[24] = test system: Matricaria inodora (MATIN); assay: Post-emergence herbicidal action against MATIN
How it was run: as §1

[25] = test system: Triticum aestivum (TRZAS); conditions: crop plant compatibility, 80 g/ha, effect vs untreated controls
How it was run: as §4

[26] = test system: Echinochloa crus-galli (ECHCG); assay: Post-emergence herbicidal action against ECHCG; conditions: dosage 320 g/ha
How it was run: as §1

Setaria viridis (SETVI) [27] = assay: Post-emergence herbicidal action against SETVI
How it was run: as §1

[28] = 80 g/ha, visual rating about 3 weeks after treatment vs untreated controls (100% = plants have died, 0% = like control plants)
[29] = 80 g/ha, visual scoring after about 3 weeks vs untreated controls

| Post-emergence action against ORYSA in % (Oryza sativa (ORYSA)) [%] | Post-emergence action against ZEAMX in % (crop plant compatibility) (Zea mays (ZEAMX) [13]) [%] | Post-emergence action against ZEAMX in % (Zea mays (ZEAMX) [13]) [%] | Structure (SMILES) | Post-emergence action against AMARE in % [1, 28] [%] | Post-emergence action against ALOMY in % ([2]; 80 g/ha) [%] | Pre-emergence action against MATIN in % ([3]; dosage 80 g/ha) [%] | Post-emergence action against AVEFA in % (Avena fatua (AVEFA) [4]; 80 g/ha) [%] | Pre-emergence action against ALOMY ([5]; 80 g/ha) [%] | Pre-emergence action against VIOTR in % (Viola tricolor (VIOTR) [8]; dosage 80 g/ha) [%] | Post-emergence action against VERPE in % ([9]; dosage 80 g/ha) [%] | Post-emergence action against DIGSA in % [10] [%] | Pre-emergence action against AMARE in % ([11]; 80 g/ha) [%] | Pre-emergence action against DIGSA in % [12, 29] [%] | Pre-emergence action against MATIN in % ([3]; dosage 320 g/ha) [%] | Pre-emergence action against ALOMY ([5]; 320 g/ha) [%] | Pre-emergence action against SETVI in % (Setaria viridis (SETVI) [16]; dosage 320 g/ha) [%] | Pre-emergence action against POLCO in % ([7]; dosage 320 g/ha) [%] | Pre-emergence action against AMARE in % ([11]; 320 g/ha) [%] | Pre-emergence action against ECHCG in % ([14]; dosage 320 g/ha) [%] | other results |
| --- | --- | --- | --- | --- | --- | --- | --- | --- | --- | --- | --- | --- | --- | --- | --- | --- | --- | --- | --- | --- |
| 10 | 0 | 10 | CC(C)=NOC(=O)COc1nn(-c2ncccc2F)c(-c2ccc(F)nc2)c1Br [Example I-45] | 80 | 90 | 80 | 80 | 90 | 90 | 80 | 90 | 90 | 100 |  |  |  |  |  |  | Post-emergence action against ABUTH in % [6]: 80%; Pre-emergence action against POLCO in % ([7]; dosage 80 g/ha): 90%; Pre-emergence action against ECHCG in % ([14]; dosage 80 g/ha): 90% |
| 10 | 0 | 10 | O=C(COc1nn(-c2ncccc2F)c(-c2ccc(F)nc2)c1Br)OCc1ccccn1 [Example I-46] | 90 | 90 | 90 | 80 | 90 | 90 | 80 | 90 | 100 | 100 | 90 | 100 | 100 | 80 | 100 | 90 | Pre-emergence action against VERPE in % [15]: 100%; Pre-emergence action against SETVI in % (Setaria viridis (SETVI) [16]; dosage 80 g/ha): 90%; Pre-emergence action against VIOTR in % (Viola tricolor (VIOTR) [8]; 320 g/ha, Viola tricolor): 100%; Pre-emergence action against DIGSA in % ([12]; dosage 320 g/ha): 100%; Post-emergence action against PHBPU in % ([17]; dosage 80 g/ha): 80%; Pre-emergence action against AVEFA in % (Avena fatua (AVEFA) [18]): 90%; Pre-emergence action against LOLRI in % (Lolium rigidum (LOLRI) [19]; dosage 80 g/ha): 90%; Pre-emergence action against LOLRI in % (Lolium rigidum (LOLRI) [19]; dosage 320 g/ha): 100% |
|  |  | 0 | CCOC(=O)COc1nn(-c2ncccc2F)c(-c2ccc(F)nc2)c1F [Example I-354] | 80 |  |  |  |  |  |  |  | 80 |  | 90 | 80 | 90 | 80 | 90 | 100 | Post-emergence action against AMARE in % ([1]; 320 g/ha, visual rating about 3 weeks after treatment): 80%; Post-emergence action against LOLRI in % (Lolium rigidum (LOLRI) [20]): 90%; Post-emergence action against ALOMY in % ([2]; 320 g/ha): 90%; Post-emergence action against VIOTR in % (Viola tricolor (VIOTR) [21]; 80 g/ha): 80%; Post-emergence action against VIOTR in % (Viola tricolor (VIOTR) [21]; 320 g/ha): 80%; Post-emergence action against AVEFA in % (Avena fatua (AVEFA) [4]; 320 g/ha): 80%; Post-emergence action against POLCO in % [22]: 80%; Pre-emergence action against ZEAMX in % (Zea mays (ZEAMX) [23]): 0%; Post-emergence action against VERPE in % ([9]; 320 g/ha, VERPE): 90%; Post-emergence action against MATIN in % ([24]; dosage 80 g/ha): 80%; Post-emergence action against MATIN in % ([24]; dosage 320 g/ha): 80%; Post-emergence action against TRZAS in % [25]: 0%; Post-emergence action against ECHCG in % [26]: 100%; Post-emergence action against PHBPU in % ([17]; dosage 320 g/ha): 90%; Post-emergence action against SETVI in % (Setaria viridis (SETVI) [27]; dosage 80 g/ha): 80%; Post-emergence action against SETVI in % (Setaria viridis (SETVI) [27]; dosage 320 g/ha): 80% |
